# Source: patent EP0361301A1, “Microbicidal compositions for the disinfection of dental impression materials” (Merz & Co. GmbH & Co., priority 1988, dated 1990)
# System: Human Immunodeficiency Virus (HIV bzw. auch HTLV III oder LAV)
# Experiment: HIV inactivation in suspension test versus 0.7 % formaldehyde
# Settings: 0,7%ig
# Text: Die Wirksamkeit der erfindungsgemässen Zubereitungen gegen den eine AIDS-Infektion verursachenden Human Immunodeficiency Virus (HIV bzw. auch HTLV III oder LAV) im Vergleich zu 0,7%igem Formaldehyd ergab eine um eine Zehnerpotenz höhere Inaktivierung des HIV bei 1%iger Konzentration der erfindungsgemässen Zubereitung 1 in nur 5 Minuten.
compound,measurement,value
C=O [Formaldehyd],toxischer Effekt im Suspensionsversuch,toxischen Effektes
